Consider two compounds from US4784992A, “Phosphorylalkanolamide derivatives of L-carnitine and pharmaceutical compositions containing same” (Sigma-Tau Industrie Farmaceutiche Riunite S.p.A., priority 1986, dated 1988).

For data set [1], the system named is erucic acid-induced myocardial steatosis. The experiment in a line: erucic acid-induced myocardial steatosis model in the rat (erucic acid-rich rape oil diet). In kind it is in vivo, rat (male Wistar). The settings on record: for Cholesterol / ATP: n=6; for Cholesterol: controls 32.7 ±11.95; for ATP: controls 34.2 ±8.73. The text has this: (§1) A myocardial steatosis model, in which an L-carnitine positive effect was already described, was used in the rat. The steatosis was induced by adding, for five (5) consecutive days, erucic acid-rich rape oil in the rats' normal daily diet, according to the method described by Branca et al. (Internat., Vit. Nutr. Res., 47, 162-166, 1977). Trial-groups of six (6) male Wistar rats, weighing from 190 g to 220 g, were used.
These effects were statistically significant with Student's t test.

For another data set, the system named is normal mouse's behaviour. The experiment in a line: Irwin's test in the mouse (normal mouse's behaviour). It counts as in vivo. The settings on record: 1000 mg/kg e.p.; 4 M + 4 F. Here is the method:
(§2) The effects of L-carnitine phosphorylethanolamide to Irwin's test in the mouse and acute toxicity after endoperitoneal administration of the substance, always in the mouse, were also evaluated.

Data set [2] is described as follows: acute toxicity in the mouse (mortality curve and LD50). It counts as in vivo. The note with it: in vivo, ip; mouse, e.p.; 7 days observation. Here is the method:
as §2

The next data set deals with mouse. The data set is described as above. In kind it is in vivo. The settings on record: 4 M + 4 F, 7 days observation. Here is the method:
as §2

For another data set, the system named is lipid metabolism. As to the kind of experiment: restoring to normal any imbalance in the lipid metabolism / summary of the pharmacological trials. In kind it is in vivo.
Excerpt: as §1
The model of erucic acid-induced myocardial steatosis is used to compare the effect of the 14 day-administration of 250 and 125 mg/kg e.p. of L-carnitine with that of L-carnitine phosphorylethanolamide at the same doses for the same study period.
Moreover other tests were carried out using a model of olive-oil induced hyperlipemia in the rat. L-carnitine was administered at 250 and 125 mg/kg endoperitoneally for 14 days, as was L-carnitine phosphorylethanolamide at 250 and 125 mg/kg endoperitoneally for 14 days. The following parameters were evaluated:
Moreover it is efficacious in re-establishing the balance between fatty acids' oxidation and uptake, and in stimulating acetyl-CoA's oxidation in Kreb's cycle. Important to underline is that to these actions, another, of a more ubiquitary nature, must be added. […]

Data set [3] can be described thus: solubility and appearance of the inner salt. It counts as physicochemical. From the text:
A 20% aqueous solution of the calcium salt of L-carnitine phosphorylethanolamide was passed through AMBERLITE IR 120 activated with a 10% solution of hydrochloric acid. The eluate was neutralized with AMBERLITE IR 45 resin. The solution was then concentrated to dryness under vacuum. A white product crystallized which was taken up with warm ethanol.

Setting [4] is: 250 mg/kg endoperitoneally, 5 days, statistically significant (Student's t test).
Setting [5] is: Table 1, 250 mg/kg e.p., 5 days, P < 0.001.

In the case of `C[N+](C)(C)C[C@H](O)CC(=O)[O-]` [L-carnitine], the “Triglycerides, change vs controls” value in data set [1] (Table 2, 250 mg/kg endoperitoneally for 5 days, P < 0.001) is -60.1%. Besides, the “Cholesterol, change vs controls” value in data set [1] (Table 2, 250 mg/kg endoperitoneally for 5 days, n.s.) is given as -34.5%. Further, the Cholesterol in data set [1] (Table 2, 250 mg/kg endoperitoneally for 5 days, spread of treated group ±7.01 on next line, n.s.) is listed as 24.7 mg/g of fresh tissue. In data set [1] (Table 2, 250 mg/kg endoperitoneally for 5 days, spread of treated group ±20.28 on next line, P < 0.05), this compound registered an ATP of 57.3 nM/g proteines.

Consider `C[N+](C)(C)CC(O)CC(=O)NCCOP(=O)([O-])O` [L-carnitine phosphorylethanolamide], for which, in data set [1] (setting [4]), the ATP values result is given as “brought back to normal the ATP values”, the “accumulation of triglycerides in the myocardium” value was “reduced the accumulation of triglycerides in the myocardium” and the cholesterol levels result is recorded as “lowered the cholesterol levels”. Besides, in data set [1] (setting [5]), the “ATP, change vs controls” value was “+76.9%” and the “Triglycerides, change vs controls” value was -47.9%. In addition, the “Cholesterol, change vs controls” value in data set [1] (Table 1, 250 mg/kg e.p., 5 days, P < 0.01) is -60.9%. Also, the Cholesterol in data set [1] (Table 1, 250 mg/kg e.p., 5 days, spread of treated group ±7.16 on next line, P < 0.01) was 12.8 mg/g of fresh tissue. Moreover, the ATP in data set [1] (Table 1, 250 mg/kg e.p., 5 days, spread of treated group ±5.78 on next line, P < 0.001) is 60.5 nM/g proteines. The Main effects observed result in the data set with normal mouse's behaviour was “apparently normal”. For the same compound, in data set [2], the LD50 at 168 h was above 8000 mg/kg. The “N° of dead animals” value in the data set with mouse (1000 mg/kg e.p.) is on record as 0. Also, in the data set on mouse (2000 mg/kg e.p.), the “N° of dead animals” value was determined as 0. Further, the “N° of dead animals” value in the data set on mouse (4000 mg/kg e.p.) was determined as 0. The “N° of dead animals” value with mouse (8000 mg/kg e.p.) is on record as 0. For the same compound, in the data set with lipid metabolism, the “normalization of myocardial hypertriglyceridemia and hyperlipemia, induced by erucic acid treatment” value is recorded as “extremely active”; the “re-establishing the balance between fatty acids' oxidation and uptake, and stimulating acetyl-CoA's oxidation in Kreb's cycle” value is listed as “efficacious”. Also, the “solubility in most of the common organic solvents” value in data set [3] (common organic solvents) was “insoluble in most of the common organic solvents”. Also, the solubility entry in data set [3] (water and methanol at room temperature, warm ethanol) was “Soluble in water and methanol at room temperature and in warm ethanol”. In data set [3] (white, amorphous powder, inner salt), the hygroscopicity entry is “hygroscopic”.
